The values below come from patent US10960007B2, “Pharmacologically active aryl-substituted pyrazolo[1,5-a]pyrimidine derivatives” (RICHTER GEDEON NYRT., priority 2017, dated 2021).

Where two headings read alike, the source gives them in different places.

Data set [1] concerns the target T1, GABAB receptor (Rattus norvegicus, UniProt O88871+Q9Z0U4).
T1 construct: from tissue; host or cells: rat brain cortex membranes
Kind of data set: In vitro [35S]GTPγS binding assay in rat cortical membranes. The class given is biochemical. On the procedure: In Vitro [^35S]GTPγS Binding Assay in Rat Cortical Membranes
Cortices of freshly harvested rat brains were dissected on an ice-cold surface and homogenized by a glass Dounce homogeniser immediately in ice-cold buffer containing 50 mM Tris, 5 mM MgCl2 and 1 mM EDTA (pH=7.6). Tissue homogenates were centrifuged at 40000 g for 15 min at 4° C. Membrane pellets were resuspended in the same buffer and membranes were incubated for 10 min at 30° C. in a shaking water bath to eliminate endogenous GABA. Homogenates were centrifuged again under the same conditions. The final pellets were resuspended in ice-cold buffer (pH=7.6) containing 50 mM Tris, 100 mM NaCl, 7 mM MgCl2, 1 mM EDTA and 1 mM dithiotreithol (DTT) to yield a concentration of 20 mg tissue weight/ml and frozen at −70° C. until use. The assay was done in a buffer containing 50 mM Tris (pH=7.4), 100 mM NaCl, 7 mM MgCl2, 1 mM EDTA and 1 mM DTT. Each assay tube contained 150 μL GDP (in a final concentration of 50 μM), 100 μL ligand and 125 μL of the membrane suspension (250 μg tissue/tube). The assay tubes were preincubated for 10 min at 30° C. to assure equilibrium. Nonspecific binding was determined in the presence of 10 μM GTPγS; basal binding was determined in the presence of buffer only. After addition of […] [^35S]GTPγS in a volume of 25 μL to the tubes, membranes were incubated for an additional 60 min at 30° C. The assay was terminated by rapid filtration through Packard UniFilter GF/B using a Packard harvester and washed four times with 1 ml ice-cold buffer. After drying the filters at 40° C. for 1 h, 40 μL Microscint (Packard) was added to the filters and radioactivity of the filters was determined by a TopCount NXT (PerkinElmer, Waltham, Mass.; Alper and Nelson, Eur. J. Pharmacol. 1998, 343, 303-312; Rinken et al, Biochem. Pharmacol. 1999, 57, 155-162). Data thus gathered were used to determine PAM EC50 values for each compound as primary in vitro activity end point.

The target of data set [2] is T2, GABAB receptor (Homo sapiens, UniProt O75899+Q9UBS5). Particulars: Perdona et al, Neuropharmacology 2011; read-out: EC50, positive modulation of EC20 GABA-evoked [35S]GTPγS binding signal; cited from earlier work.
T2 sequence (O75899 42-941): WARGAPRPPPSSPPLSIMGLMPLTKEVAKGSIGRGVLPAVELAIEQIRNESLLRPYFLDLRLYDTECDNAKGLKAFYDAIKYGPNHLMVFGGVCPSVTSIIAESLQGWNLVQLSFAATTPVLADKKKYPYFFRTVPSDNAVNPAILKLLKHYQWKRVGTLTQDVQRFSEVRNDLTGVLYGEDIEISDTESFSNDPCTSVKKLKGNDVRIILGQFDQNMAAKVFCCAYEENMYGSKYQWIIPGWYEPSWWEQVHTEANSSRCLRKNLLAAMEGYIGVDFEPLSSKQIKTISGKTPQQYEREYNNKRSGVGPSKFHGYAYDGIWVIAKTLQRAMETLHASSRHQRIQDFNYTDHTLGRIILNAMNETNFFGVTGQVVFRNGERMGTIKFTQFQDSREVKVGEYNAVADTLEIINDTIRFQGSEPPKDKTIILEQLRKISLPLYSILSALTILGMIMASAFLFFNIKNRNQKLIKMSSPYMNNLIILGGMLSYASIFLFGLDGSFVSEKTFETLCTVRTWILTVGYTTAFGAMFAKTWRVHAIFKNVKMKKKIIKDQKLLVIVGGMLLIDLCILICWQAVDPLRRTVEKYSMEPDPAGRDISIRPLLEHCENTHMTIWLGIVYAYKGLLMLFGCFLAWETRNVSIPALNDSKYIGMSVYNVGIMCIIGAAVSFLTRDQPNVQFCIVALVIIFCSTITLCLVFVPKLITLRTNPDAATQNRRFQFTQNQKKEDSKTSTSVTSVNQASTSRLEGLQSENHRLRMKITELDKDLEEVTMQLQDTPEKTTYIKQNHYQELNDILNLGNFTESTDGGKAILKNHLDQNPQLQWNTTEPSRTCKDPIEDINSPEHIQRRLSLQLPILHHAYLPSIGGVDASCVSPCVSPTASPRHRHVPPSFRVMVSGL
T2 sequence (Q9UBS5 15-961 limits assumed): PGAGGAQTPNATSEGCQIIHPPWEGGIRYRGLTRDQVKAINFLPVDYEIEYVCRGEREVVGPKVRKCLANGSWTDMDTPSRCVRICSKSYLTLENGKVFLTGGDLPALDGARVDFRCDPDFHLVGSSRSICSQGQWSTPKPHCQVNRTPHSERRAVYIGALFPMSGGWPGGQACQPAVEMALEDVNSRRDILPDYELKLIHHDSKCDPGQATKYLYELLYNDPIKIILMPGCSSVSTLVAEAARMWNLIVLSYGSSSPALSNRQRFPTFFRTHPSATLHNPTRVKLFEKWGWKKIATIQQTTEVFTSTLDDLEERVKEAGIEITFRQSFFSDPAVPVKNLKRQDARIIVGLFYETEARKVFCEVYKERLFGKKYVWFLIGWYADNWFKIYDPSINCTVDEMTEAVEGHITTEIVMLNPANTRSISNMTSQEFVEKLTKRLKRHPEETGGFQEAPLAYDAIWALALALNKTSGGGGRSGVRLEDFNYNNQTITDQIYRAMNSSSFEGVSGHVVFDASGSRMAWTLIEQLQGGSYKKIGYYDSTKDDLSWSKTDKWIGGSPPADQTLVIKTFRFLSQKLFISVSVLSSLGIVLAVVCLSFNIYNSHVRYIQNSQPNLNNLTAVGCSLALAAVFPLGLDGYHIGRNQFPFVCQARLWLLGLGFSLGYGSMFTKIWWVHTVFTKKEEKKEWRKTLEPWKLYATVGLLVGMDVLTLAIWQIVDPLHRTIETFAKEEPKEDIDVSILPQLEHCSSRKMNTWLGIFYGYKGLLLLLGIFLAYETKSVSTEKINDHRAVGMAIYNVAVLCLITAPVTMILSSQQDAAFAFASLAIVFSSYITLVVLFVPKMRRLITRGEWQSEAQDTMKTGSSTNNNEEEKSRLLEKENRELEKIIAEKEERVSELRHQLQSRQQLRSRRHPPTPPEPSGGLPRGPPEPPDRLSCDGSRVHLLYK
The subject of data set [3] is rats. The conditions noted are these: significance only at high doses (30 and 100 mg/kg); cited from earlier work.
Data set [4] has as its system mice. The conditions noted are these: cited from earlier work.
For data set [5] the following is noted: human conventional liver microsomes; cited from earlier work.
For data set [6] the following is noted: rat conventional liver microsomes; cited from earlier work.
The conditions of data set [7]: mouse conventional liver microsomes; cited from earlier work.
Data set [8] has as its system adult rats. Kind of data set: Foot shock-induced ultrasonic vocalization (USV) in adult rats. It is filed as in vivo, rat. Particulars: Rattus norvegicus, po; 10 mg/kg per os, 1 h before shocking, male Wistar rats. As for the experimental part:
Foot Shock-Induced Ultrasonic Vocalization (USV) in Adult Rats
(§1) Under stressful conditions, adult rats emit 22 kHz ultrasounds that can be reduced by various pharmacological treatments (De Vry et al, Eur. J. Pharmacol. 1993, 249, 331-339; Sanchez, Eur. J. Pharmacol. 2003, 463, 133-143). […] Therefore, a foot shock-induced vocalization paradigm in adult rats was used to assess in vivo efficacy of centrally acting GABAB receptor ligands. Behavioral measurements were carried out on male Wistar rats (200-250 g, Toxicoop, Hungary). Rats were housed in groups of four in plastic cages with a wire grid top in a temperature and light-controlled laboratory animal care unit (22±2° C., 12-h light/dark cycle, lights on at 6:00 AM) with ad libitum access to commercial pellet rat food and tap water. Investigations were approved by the Local Ethical Committee of Gedeon Richter Plc. and were carried out in strict compliance with the European Directive 2010/63/EU regarding the care and use of laboratory animals for experimental procedures and all efforts were made to minimize the number of animals as well as their suffering. In order to evoke emission of ultrasounds, animals were footshocked after a habituation period of 30 s (6 shocks, 1 s, 0.8 mA each, inter-shock interval 10 s) in a sound attenuated shocking chamber (Experimetria, 40×40×80 cm). […] Vocalizations were measured right after the last footshock for 10 min with a Metris Sonotrack system and the total time of vocalizations was registered. Vocalization of parallel vehicle treated animals was considered as control value and inhibition percent was calculated for each compound. At approximately 75 min after treatment and behavioral measurements, blood and brain samples were harvested in order to determine exposures associated with in vivo activity.

Data set [9] can be described thus: Plasma and brain exposure after USV measurement. The conditions noted are these: rat, per os, about 75 min after treatment, formulation SpD1. The class given is in vivo. On the procedure: as §1
Data set [10] has as its target T2, GABAB receptor. The conditions noted are these: compounds of Faghih et al., US 2016/0304527 A1; cited from earlier work.
The mark [11] stands for this setting: [35S]GTPγS binding, rat cortical membranes, read-out: In vitro PAM potency (PAM EC50).

T1 sequence (O88871 41-940): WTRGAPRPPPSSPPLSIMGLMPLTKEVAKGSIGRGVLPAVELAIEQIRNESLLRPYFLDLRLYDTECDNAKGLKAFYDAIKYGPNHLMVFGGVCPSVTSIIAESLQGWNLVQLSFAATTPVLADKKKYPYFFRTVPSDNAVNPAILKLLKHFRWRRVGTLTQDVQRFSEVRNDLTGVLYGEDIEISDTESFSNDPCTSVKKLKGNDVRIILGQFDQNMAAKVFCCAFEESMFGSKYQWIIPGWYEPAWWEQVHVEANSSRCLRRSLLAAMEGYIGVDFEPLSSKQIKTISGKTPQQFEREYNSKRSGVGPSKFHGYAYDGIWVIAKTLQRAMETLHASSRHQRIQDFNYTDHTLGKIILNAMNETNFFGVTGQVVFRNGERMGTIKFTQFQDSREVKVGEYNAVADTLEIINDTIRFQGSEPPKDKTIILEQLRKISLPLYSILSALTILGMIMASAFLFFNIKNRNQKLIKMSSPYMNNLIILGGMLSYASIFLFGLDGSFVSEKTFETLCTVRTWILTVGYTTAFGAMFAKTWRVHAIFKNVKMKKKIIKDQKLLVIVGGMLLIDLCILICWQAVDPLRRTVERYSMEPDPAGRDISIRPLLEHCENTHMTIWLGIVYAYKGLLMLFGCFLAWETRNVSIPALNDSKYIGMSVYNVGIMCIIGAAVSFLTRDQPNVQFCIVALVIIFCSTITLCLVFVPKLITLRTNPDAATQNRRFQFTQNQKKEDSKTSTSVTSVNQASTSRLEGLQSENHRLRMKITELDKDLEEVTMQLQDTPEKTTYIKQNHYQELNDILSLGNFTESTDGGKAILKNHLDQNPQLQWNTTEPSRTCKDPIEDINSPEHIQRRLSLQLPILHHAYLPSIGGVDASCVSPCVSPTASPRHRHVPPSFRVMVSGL
T1 sequence (Q9Z0U4 17-960 limits assumed): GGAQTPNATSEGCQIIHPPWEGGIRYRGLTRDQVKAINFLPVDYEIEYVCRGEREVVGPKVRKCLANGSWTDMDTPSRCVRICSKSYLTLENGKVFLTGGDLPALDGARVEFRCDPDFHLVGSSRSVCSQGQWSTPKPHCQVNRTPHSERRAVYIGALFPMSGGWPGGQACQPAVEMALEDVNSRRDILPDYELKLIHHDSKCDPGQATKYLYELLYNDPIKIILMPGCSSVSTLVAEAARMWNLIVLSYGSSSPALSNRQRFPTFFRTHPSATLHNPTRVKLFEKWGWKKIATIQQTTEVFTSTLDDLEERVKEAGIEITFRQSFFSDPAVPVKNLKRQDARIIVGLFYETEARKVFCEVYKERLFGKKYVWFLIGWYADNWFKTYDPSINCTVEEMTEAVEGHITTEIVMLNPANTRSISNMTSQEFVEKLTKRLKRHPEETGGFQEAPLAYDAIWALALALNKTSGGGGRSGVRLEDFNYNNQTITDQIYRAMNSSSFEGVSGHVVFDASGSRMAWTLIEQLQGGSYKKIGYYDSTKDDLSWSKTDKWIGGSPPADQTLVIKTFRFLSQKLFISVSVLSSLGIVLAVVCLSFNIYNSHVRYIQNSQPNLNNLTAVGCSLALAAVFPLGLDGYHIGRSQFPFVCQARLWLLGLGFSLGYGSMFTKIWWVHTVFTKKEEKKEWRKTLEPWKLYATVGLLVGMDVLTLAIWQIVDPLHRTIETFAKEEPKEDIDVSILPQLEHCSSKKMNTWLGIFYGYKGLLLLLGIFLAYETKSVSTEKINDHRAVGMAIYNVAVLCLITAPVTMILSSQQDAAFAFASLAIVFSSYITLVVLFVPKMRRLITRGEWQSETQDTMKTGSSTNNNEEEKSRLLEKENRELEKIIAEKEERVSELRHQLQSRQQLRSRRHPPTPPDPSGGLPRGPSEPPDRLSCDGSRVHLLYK

With `Cc1cc(N2CCCCC2CCO)n2nc(-c3ccc(Cl)cc3)cc2n1` (centres unmarked) [CMPPE, 2-{1-[2-(4-chlorophenyl)-5-methylpyrazolo[1,5-a]pyrimidin-7-yl]-2-piperidinyl}ethanol], the EC50 is 611 nM in [1] (applicant's test system, read-out: EC50 in our in vitro [35S]GTPγS test system) and 2570 nM in data set [2]. Besides, the “Efficacy in food consumption test” value in data set [3] was “mild efficacy”. For the same compound, in data set [4], the “ED50, potentiation of baclofen-induced muscle relaxation” value is reported as 53.8 mg/kg. The Clint in [5] was 0.19±0.02 mL/min/g liver; in [6] it was 0.31±0.07 mL/min/g liver; in data set [7] it was 1.18±0.4 mL/min/g liver.

Take `CC[C@]1(C(=O)O)CCCN(c2c(C(C)C)c(C)nc3cc(-c4ccc(Cl)cc4)nn23)C1` [Example 5, (3S)-1-[2-(4-Chlorophenyl)-5-methyl-6-(propan-2-yl)pyrazolo[1,5-a]pyrimidin-7-yl]-3-ethylpiperidine-3-carboxylic acid]: the EC50 in [1] (setting [11]) lay in the range of 10 to 100 nM. Further, in data set [8], the inhibition in vivo at 10 mg/kg worked out at 37%. Besides, in data set [9], the “Brain exposure at 1 mg/kg” value is 857 ng/g and the “Plasma exposure at 1 mg/kg” value worked out at 1472 ng/mL.

Turning to `CC[C@]1(C(=O)O)CCCN(c2c(C(C)C)c(C)nc3c(F)c(-c4ccc(C(F)(F)F)cc4)nn23)C1` [Example 15, (3S)-3-Ethyl-1-[3-fluoro-5-methyl-6-(propan-2-yl)-2-[4-(trifluoromethyl)phenyl]pyrazolo[1,5-a]pyrimidin-7-yl]piperidine-3-carboxylic acid], the EC50 in data set [1] (setting [11]) lay in the range of 1 to 10 nM. The inhibition in vivo at 10 mg/kg in data set [8] was 85%. Also, in [9], the “Brain exposure at 1 mg/kg” value amounted to 1377 ng/g and the “Plasma exposure at 1 mg/kg” value is recorded as 1317 ng/mL.

For `CC[C@]1(C(=O)O)CCCN(c2c(C(C)C)c(C)nc3cc(-c4ccc(C(F)(F)F)c(F)c4)nn23)C1` [Example 14, (3S)-3-Ethyl-1-{2-[3-fluoro-4-(trifluoromethyl)phenyl]-5-methyl-6-(propan-2-yl)pyrazolo[1,5-ala]pyrimidin-7-yl}piperidine-3-carboxylic acid], the EC50 in [1] (setting [11]) lay within 10 to 100 nM. Further, the inhibition in vivo at 10 mg/kg in [8] came to 47%. Also, in [9], the “Brain exposure at 1 mg/kg” value is 1962 ng/g and the “Plasma exposure at 1 mg/kg” value is given as 2323 ng/mL.

For the compound `CCC(c1ccc(Cl)cc1)c1cc2nc(C)cc(N3CCCCC3CCO)n2n1` (centres unmarked) [Example 3-1], the “Binding potency (in words)” value in [10] was “nanomolar”.
